The values below come from paper PMC9315535 (Microorganisms, 2022).

In one series the test system is ZIKV NS2B/NS3 protease. To be noted: Targeted virus ZIKV; cited from earlier work.
In a further series the test system is YFV NS2B/NS3 protease. To be noted: cited from earlier work.
For the next series, the system named is CHIKV nsP2 protease. Also noted: method as in PMID 33661906. Particulars: Targeted virus CHIKV; cited from earlier work.
The target in series [1] is T1, ZIKV NS2B/NS3pro (Zika virus, UniProt A0A140DLX4). As to the kind of experiment: biochemical.
Series [2] has as its target T2, YFV NS2B/NS3pro (Yellow fever virus, UniProt Q1X881). As to the kind of experiment: biochemical.
Series [3] addresses T3, CHIKV nsP2pro (Chikungunya virus, UniProt Q8JUX6). Description: biochemical.
Series [4] addresses T1, ZIKV NS2B/NS3pro. Description: biochemical. The format is binding.
The target of series [5] is T2, YFV NS2B/NS3pro. As to the kind of experiment: biochemical. The format is binding.
In series [6] the target is T3, CHIKV nsP2pro. As to the kind of experiment: biochemical. In kind it is binding.
Series [7] deals with T1, ZIKV NS2B/NS3pro. Description: Thermal unfolding followed by Trp fluorescence, ZIKV protease. Particulars: protease alone 43 °C. The format is binding.
The target in series [8] is T2, YFV NS2B/NS3pro. In kind it is binding.
Series [9] addresses T3, CHIKV nsP2pro. As to the kind of experiment: Thermal unfolding followed by Trp fluorescence, CHIKV protease. In kind it is binding.
The test system of series [10] is Chikungunya virus (strain ECSA). As to the kind of experiment: Virucidal / time-of-drug addition plaque-forming assay, CHIKV. In kind it is cell-based. To be noted: 50 µM, virus and compound incubated 1 h at RT, Vero cells.
In series [11] the test system is Zika virus (strain ZIKVBR). Description: Virucidal / time-of-drug addition plaque-forming assay, ZIKV. The format is cell-based. To be noted: 50 µM, Vero cells.
The subject of series [12] is yellow fever virus (vaccinal strain). The format is cell-based.
For series [13], the system named is serine protease of the human cytomegalovirus (HCMV). Also noted: method as in PMID 8639546. Particulars: cited from earlier work.
The nature of a further series: in vitro. Particulars: Cercopithecus aethiops (African green monkey).
The conditions of series [14]: ref https://www.drugbank.ca/drugs/DB00140; cited from earlier work.
Setting [15] is: read-out: Inhibition of protease activity, primary test.

A word on the IC50: it is the concentration at which inhibition is half-maximal. For `COc1ccc([C@@H]2CC(=O)c3c(O)cc(O)cc3O2)cc1O` [Hesperetin], the IC50 in the series on ZIKV NS2B/NS3 protease was 12.6 µM; with YFV NS2B/NS3 protease, 2 µM; in the series on CHIKV nsP2 protease, 2.5 µM.
As to `CO[C@@H]1[C@@H](OC(N)=O)[C@@H](O)[C@H](Oc2ccc3c(O)c(NC(=O)c4ccc(O)c(CC=C(C)C)c4)c(=O)oc3c2C)OC1(C)C` [Novobiocin], the IC50 in the series on ZIKV NS2B/NS3 protease was […].
As to `COc1ccc2c(O[C@@H]3C[C@H]4C(=O)N[C@]5(C(=O)NS(=O)(=O)C6CC6)C[C@H]5/C=C\CCCCN(C)C(=O)[C@@H]4C3)cc(-c3nc(C(C)C)cs3)nc2c1C` [Simeprevir], the 50% inhibitory concentration (IC50) in the series with ZIKV NS2B/NS3 protease is 2.6 µM.
In general, inhibition refers to the share of the control response that was lost under treatment. The Kd is the equilibrium constant for the complex coming apart. Low values mean tighter binding, high ones weaker binding. Broadly, the ΔTm is the shift of the melting midpoint relative to a reference. As a reminder, the LogP is a log measure of how a compound divides between an organic and an aqueous phase. On to `Cc1cc2nc3c(=O)[nH]c(=O)nc-3n(C[C@H](O)[C@H](O)[C@H](O)CO)c2cc1C` [riboflavin], for which the “Inhibition Mode” value (on ZIKV NS2B/NS3pro [1]; at YFV NS2B/NS3pro [2]; at CHIKV nsP2pro [3]; in series [13]) was “competitive” each time. The IC100 on ZIKV NS2B/NS3pro [1] (1 h, read-out: Final concentration to inhibit 100% of protease) is 220 µM. Besides, the IC50 against ZIKV NS2B/NS3pro [1] (IC50 ± STD) was 79.4 ± 5 µM; against ZIKV NS2B/NS3pro [1] (pIC50), 79.4 µM; against YFV NS2B/NS3pro [2], 45.7 ± 2.9 µM; against CHIKV nsP2pro [3], 0.093 ± 0.0057 µM; in series [13] it was 0.3 µM. Besides, the figures for the inhibition at 20 µM at ZIKV NS2B/NS3pro [1] (setting [15]), on YFV NS2B/NS3pro [2] (setting [15]) and on CHIKV nsP2pro [3] (setting [15]) were 10%, 30% and 100%, respectively. In addition, the “Final concentration to inhibit 100% of protease” value at YFV NS2B/NS3pro [2] is given as 200 µM. At CHIKV nsP2pro [3], the “LE (ligand efficiency)” value came out at 0.36. The “Required concentration to inhibit protease (100%)” value at CHIKV nsP2pro [3] is recorded as 5 µM. For the same compound, at CHIKV nsP2pro [3] (setting [15]), the inhibition at 1 µM is about 85%. The “Excitation Shift” value on ZIKV NS2B/NS3pro [4], on YFV NS2B/NS3pro [5] and at CHIKV nsP2pro [6] was “blue edge excitation shift” throughout. Further, the dissociation constant Kd on ZIKV NS2B/NS3pro [4] (KD ± STD) turned out to be 25.1 µM; at YFV NS2B/NS3pro [5], 18.2 ± 3.9 µM; on CHIKV nsP2pro [6], 2.8 ± 0.7 µM. In addition, the “Tm of protease-riboflavin complex” value on ZIKV NS2B/NS3pro [7] worked out at 51 °C; on YFV NS2B/NS3pro [8] it was 51 °C; on CHIKV nsP2pro [9] (protease alone 47 °C), 52 °C. Moreover, the ΔTm at YFV NS2B/NS3pro [8] came to 4 °C; on CHIKV nsP2pro [9] (protein 10 µM, riboflavin 75 µM), 5 °C. Further, the “Decrease of CHIKV replication, virucidal assay” value in series [10] stood at 44.35%. Besides, the “Prevention of virus entry (virucidal assay)” value in [11] and in [12] was “not observed” each time. For the same compound, the “Effect on cell viability” value with Vero cells is “does not affect cell viability”. In the series “in vitro”, this compound displayed a CC50 of 72.3 µM. The LogP in series [14] is recorded as −1.5.
